Laboratory results reported in US9169241B2, “Quinolinyloxyphenylsulfonamides” (Max-Planck-Gesellschaft Zur Forderung der Wissenschaften …, priority 2009, dated 2015).
pIC50: −log10 of the molar value. Like-named read-outs stand apart in the source and are kept apart here. Each block holds one compound with its values, some of them ahead of it.

Legend:
[1] = test system: cells; experiment: Boyden chamber migration assay (Table VI); assay type: cell-based; conditions: Homo sapiens, Hs-578T, 16 h, Hs578T cells; 16 h migration
How it was run: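 20000 cells seeded in the upper compartment in 0% FCS plus 0.1% BSA and left 16 h to migrate through […] membrane toward 10% FCS medium below. Non-migrated cells swabbed off; cells on the filter underside fixed and counted.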

[2] = test system: indicated cell line; experiment: Wound healing migration assay (Table IV); assay type: cell-based; conditions: compounds at 12.5, 6.25, 3.125 μM, 48 h-72 h
How it was run: (§1)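 Cells seeded at 150000/24 well, grown to monolayer overnight, scratched with a pipette tip, then treated with compound at 12.5, 6.25 or 3.125 μM versus DMSO. Stopped by crystal violet fixation at 48-72 h once control wounds closed; IC50 taken as 50% wound size between t0 and t48 or t72.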

[3] = test system: Hs578T; experiment: Wound healing migration assay; assay type: cell-based; conditions: Homo sapiens, Hs-578T; HS578T cell line; Table Ib
How it was run: as §1

[4] = test system: SF126; experiment: Cell vitality assay (ATP assay, CellTiter-Glo); assay type: cell-based; conditions: Homo sapiens, SF-126
How it was run: (§2)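 Steps: seed 1000 cells per well; add compound (0.195–12.5 μM, 7 points) or DMSO; incubate 72 h; equilibrate to room temperature ~30 min; add reagent, shake 2 min, stand 10 min; read luminescence. IC50 relative to DMSO-control ATP.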

[5] = test system: U118; experiment: Cell vitality assay (ATP assay, CellTiter-Glo); assay type: cell-based
How it was run: as §2

[6] = test system: Hs578T; experiment: Cell vitality assay (ATP assay, CellTiter-Glo); assay type: cell-based; conditions: Homo sapiens, Hs-578T, 72 h
How it was run: as §2

[7] = test system: SF126; experiment: Matrigel outgrowth assay/branching assay; assay type: cell-based; conditions: Homo sapiens, SF-126, Table Vb, read-out: Total branching inhibition in Matrigel SF126
How it was run: (§3)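 Step one: Matrigel (3 mg/ml) is set for 1 h at 37° C. Step two: 5000 cells per well go on in medium with compound (0.78–3.125 μM) or DMSO. Step three: images at 48, 72 and 96 h are scored for complete loss of branching.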

[8] = test system: U118; experiment: Matrigel outgrowth assay/branching assay; assay type: cell-based; conditions: Table Vb, read-out: Total branching inhibition in Matrigel U118
How it was run: as §3

[9] = test system: A172; experiment: Matrigel outgrowth assay/branching assay; assay type: cell-based; conditions: Homo sapiens, A 172, Table Vb, read-out: Total branching inhibition in Matrigel A172
How it was run: as §3

[10] = test system: Hs578T; experiment: Matrigel outgrowth assay/branching assay; assay type: cell-based; conditions: Homo sapiens, Hs-578T; HS578T cell line; Table Ib; read-out: Total branching inhibition in Matrigel HS578T
How it was run: as §3

[11] = test system: SF763; experiment: Cell vitality assay (ATP assay, CellTiter-Glo); assay type: cell-based; conditions: SF763, 72 h; Table IIa; read-out: IC50 ATP-Assay after 72 h SF763
How it was run: as §2

[12] = test system: U138; experiment: Cell vitality assay (ATP assay, CellTiter-Glo); assay type: cell-based; conditions: U138, 72 h; Table IIa; read-out: IC50 ATP-Assay after 72 h U138
How it was run: as §2

[13] = Homo sapiens, C8161 cells, read-out: IC50 Wound healing Assay C8161
[14] = SF126, 72 h, Table IIa, read-out: IC50 ATP-Assay after 72 h SF126
[15] = cell vitality assay, SF126, Table IIb, read-out: IC50 SF126
[16] = U118, 72 h, Table IIa, read-out: IC50 ATP-Assay after 72 h U118
[17] = cell vitality assay, U118, Table IIc, read-out: IC50 U118
[18] = SF763 cells, read-out: IC50 Wound healing Assay SF763
[19] = Hs578T, Table IIa, read-out: IC50 ATP-Assay after 72 h Hs578T

SMILES: COc1cc2c(Oc3ccc(NS(=O)(=O)c4cc(F)ccc4F)cc3F)ccnc2cc1OCCCN1CCN(C)CC1 [Example 12, 2,5-Difluoro-N-(3-fluoro-4-{6-methoxy-7-[3-(4-methyl-piperazin-1-yl)-propoxy]-quinolin-4-yloxy}-phenyl)-benzenesulfonamide]
- pIC50 [1]: ≥ 5.30
- pIC50 ([2]; Homo sapiens, A 172, A172 cells, read-out: IC50 Wound healing Assay A172): ≥ 4.90
- pIC50 ([2]; Homo sapiens, SF-126, SF126 cells, read-out: IC50 Wound healing Assay SF126): ≥ 4.90
- pIC50 [2, 13]: ≥ 4.90
- pIC50 ([2]; U118 cells, read-out: IC50 Wound healing Assay U118): ≥ 4.90
- pIC50 [3]: ≥ 4.90
- pIC50 [4, 14]: ≥ 4.90
- pIC50 [4, 15]: ≥ 4.90
- pIC50 [5, 16]: ≥ 4.90
- pIC50 [5, 17]: ≥ 4.90
- pIC50 ([6]; HS578T cell line, Table Ib, read-out: IC50 ATP-Assay HS578T after 72 h): ≥ 4.90
- IC100 [7]: ≤ 12.5 µM
- IC100 [8]: ≤ 12.5 µM
- IC100 [9]: ≤ 12.5 µM
- pIC50 [10]: ≥ 5.00

SMILES: COc1cc2c(Oc3ccc(NS(=O)(=O)c4ccccc4[N+](=O)[O-])cc3F)ccnc2cc1OCCCN1CCN(C)CC1 [Example 21, N-(3-Fluoro-4-{6-methoxy-7-[3-(4-methyl-piperazin-1-yl)-propoxy]-quinolin-4-yloxy}-phenyl)-2-nitro-benzenesulfonamide]
- melting point: 125 to 128 °C
- pIC50 [1]: ≥ 5.30
- pIC50 [2, 13]: ≥ 4.90
- pIC50 [2, 18]: 4.30 to 4.90
- pIC50 [4, 14]: 4.30 to 4.90
- pIC50 [11]: 4.30 to 4.90
- pIC50 [5, 16]: 4.30 to 4.90
- pIC50 [10]: ≥ 5.00

SMILES: COc1cc2c(Oc3ccc(NS(=O)(=O)c4ccccc4C(F)(F)F)cc3F)ccnc2cc1OCCCN1CCN(C)CC1 [Example 24, N-(3-Fluoro-4-{6-methoxy-7-[3-(4-methyl-piperazin-1-yl)-propoxy]-quinolin-4-yloxy}-phenyl)-2-trifluoromethyl-benzenesulfonamide]
- melting point: 102 to 106 °C
- pIC50 [1]: ≥ 5.30
- pIC50 [2, 13]: ≥ 4.90
- pIC50 [4, 15]: ≥ 4.90
- pIC50 [5, 17]: 4.30 to 4.90
- IC100 [7]: ≤ 12.5 µM
- IC100 [8]: ≤ 12.5 µM
- IC100 [9]: ≤ 12.5 µM

Now from value to compound, other results behind:

- melting point: 86 to 90 °C
- pIC50 [1]: ≥ 5.30
- pIC50 [2, 13]: 4.30 to 4.90
- pIC50 [2, 18]: 4.30 to 4.90
SMILES: COc1cc2c(Oc3ccc(NS(=O)(=O)c4ccccc4OC(F)(F)F)cc3F)ccnc2cc1OCCCN1CCN(C)CC1 [Example 25, N-(3-Fluoro-4-{6-methoxy-7-[3-(4-methyl-piperazin-1-yl)-propoxy]-quinolin-4-yloxy}-phenyl)-2-trifluoromethoxy-benzenesulfonamide]
- pIC50 [4, 14]: ≥ 4.90
- pIC50 [12]: ≥ 4.90
- pIC50 [11]: ≥ 4.90
- pIC50 [5, 16]: ≥ 4.90
- pIC50 [6, 19]: ≥ 4.90
- pIC50 [10]: ≥ 5.00

- melting point: 96 to 98 °C
- pIC50 [1]: ≥ 5.30
- pIC50 [2, 13]: ≥ 4.90
- pIC50 [2, 18]: ≥ 4.90
SMILES: COc1cc2c(Oc3ccc(NS(=O)(=O)c4ccccc4Cl)cc3F)ccnc2cc1OCCCN1CCN(C)CC1 [Example 29, 2-Chloro-N-(3-fluoro-4-{6-methoxy-7-[3-(4-methyl-piperazin-1-yl)-propoxy]-quinolin-4-yloxy}-phenyl)-benzenesulfonamide]
- pIC50 [4, 14]: ≥ 4.90
- pIC50 [12]: ≥ 4.90
- pIC50 [11]: 4.30 to 4.90
- pIC50 [5, 16]: ≥ 4.90
- pIC50 [6, 19]: 4.30 to 4.90
- pIC50 [10]: ≥ 5.00

- pIC50 [1]: ≥ 5.30
- pIC50 [2, 13]: 4.30 to 4.90
- pIC50 [2, 18]: ≥ 4.90
SMILES: COc1cc2c(Oc3c(Cl)cc(NS(=O)(=O)c4c(F)cccc4F)cc3Cl)ccnc2cc1OCCCN1CCN(C)CC1 [Example 88, N-(3,5-Dichloro-4-{6-methoxy-7-[3-(4-methyl-piperazin-1-yl)-propoxy]-quinolin-4-yloxy}-phenyl)-2,6-difluoro-benzenesulfonamide]
- pIC50 [4, 14]: 4.30 to 4.90
- pIC50 [12]: 4.30 to 4.90
- pIC50 [11]: 4.30 to 4.90
- pIC50 [5, 16]: ≥ 4.90
- pIC50 [6, 19]: ≥ 4.90
- pIC50 [10]: 4.60 to 5.00
